From patent US10640506B2, “Cyclobutyl substituted pyrrolopyridine and pyrrolopyrimidines derivatives as JAK inhibitors” (Incyte Corporation, priority 2010, dated 2020)
Read-outs that look alike come from different tables or passages of the source.

Tests used:
JAK2 (a.a. 828-1132) = target: T1, JAK2 (a.a. 828-1132) (Homo sapiens, UniProt O60674); test: In vitro JAK kinase assay (HTRF, phosphorylation of biotinylated peptide), JAK2; type: biochemical
T1 construct: JAK2 (a.a. 828-1132); His tag (N)
Method in brief: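 His-tagged catalytic domains of human JAK1 (a.a. 837-1142) and JAK2 (a.a. 828-1132), baculovirus-expressed, phosphorylate a biotinylated peptide for 1 hour at room temperature. Stopped with EDTA; detected by HTRF using SA-APC and Eu-Py20 antibody after 40 min binding; values binned as ranges.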

[1] = target: human JAK1 (a.a. 837-1142) (Homo sapiens, UniProt P23458); test: In vitro JAK kinase assay (HTRF, phosphorylation of biotinylated peptide), JAK1; type: biochemical
Method in brief: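 His-tagged human JAK1 catalytic domain (a.a. 837-1142), baculovirus/insect-cell expressed, phosphorylates a biotinylated peptide for 1 h at room temperature. Reaction stopped with EDTA; product detected by HTRF (SA-APC, Eu-Py20, 40 min binding). IC50 reported as ranges.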

Sequence of human JAK1 (a.a. 837-1142) (P23458 849-1154): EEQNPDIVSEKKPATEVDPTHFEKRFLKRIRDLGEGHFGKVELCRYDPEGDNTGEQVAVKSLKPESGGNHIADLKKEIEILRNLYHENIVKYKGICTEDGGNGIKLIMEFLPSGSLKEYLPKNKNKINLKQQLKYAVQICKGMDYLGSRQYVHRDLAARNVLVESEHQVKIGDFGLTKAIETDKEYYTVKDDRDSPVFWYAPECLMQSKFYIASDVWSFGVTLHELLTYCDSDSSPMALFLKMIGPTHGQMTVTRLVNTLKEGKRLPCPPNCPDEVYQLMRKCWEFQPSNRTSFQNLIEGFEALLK
T1 sequence (O60674 828-1132): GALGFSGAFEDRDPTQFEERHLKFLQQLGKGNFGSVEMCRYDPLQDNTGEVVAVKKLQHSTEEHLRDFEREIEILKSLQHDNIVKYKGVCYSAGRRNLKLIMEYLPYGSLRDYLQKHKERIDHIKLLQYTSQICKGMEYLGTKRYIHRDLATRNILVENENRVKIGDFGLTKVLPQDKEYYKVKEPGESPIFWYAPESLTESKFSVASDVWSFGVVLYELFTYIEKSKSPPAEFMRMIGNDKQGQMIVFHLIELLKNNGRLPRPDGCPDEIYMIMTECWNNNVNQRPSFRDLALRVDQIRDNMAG

Compound	IC50 (JAK2 (a.a. 828-1132); Table F, 1 mM ATP) [nM]	IC50 ([1]; Table F, 1 mM ATP) [nM]	IC50 (JAK2 (a.a. 828-1132); read-out: JAK2 IC50 (nM) at 1 mM ATP, Table F) [nM]	IC50 ([1]; read-out: JAK1 IC50 (nM) at 1 mM ATP, Table F) [nM]
CC(C)(CO)NCc1cc(OC2CCN([C@H]3C[C@](CC#N)(n4cc(-c5ncnc6[nH]ccc56)cn4)C3)CC2)nc(C(F)(F)F)c1 [Example 153, {trans-3-(4-{[4-{[(2-hydroxy-1,1-dimethylethyl)amino]methyl}-6-(trifluoromethyl)pyridin-2-yl]oxy}piperidin-1-yl)-1-[4-(7H-pyrrolo[2,3-d]pyrimidin-4-yl)-1H-pyrazol-1-yl]cyclobutyl}acetonitrile]	25 to 100	< 10	–	–
N#CC[C@]1(n2cc(-c3ncnc4[nH]ccc34)cn2)C[C@H](N2CCC(Oc3cc(CNCCO)cc(C(F)(F)F)n3)CC2)C1 [Example 154, {trans-3-(4-{[4-{[(2-hydroxyethyl)amino]methyl}-6-(trifluoromethyl)pyridin-2-yl]oxy}piperidin-1-yl)-1-[4-(7H-pyrrolo[2,3-d]pyrimidin-4-yl)-1H-pyrazol-1-yl]cyclobutyl}acetonitrile]	25 to 100	< 10	–	–
N#CC[C@]1(n2cc(-c3ncnc4[nH]ccc34)cn2)C[C@H](N2CCC(Oc3cc(CNCCCO)cc(C(F)(F)F)n3)CC2)C1 [Example 155, {trans-3-(4-{[4-{[(3-hydroxypropyl)amino]methyl}-6-(trifluoromethyl)pyridin-2-yl]oxy}piperidin-1-yl)-1-[4-(7H-pyrrolo[2,3-d]pyrimidin-4-yl)-1H-pyrazol-1-yl]cyclobutyl}acetonitrile]	25 to 100	< 10	–	–
N#CC[C@]1(n2cc(-c3ncnc4[nH]ccc34)cn2)C[C@H](N2CCC(Oc3cc(CN4CCC4)cc(C(F)(F)F)n3)CC2)C1 [Example 156, {trans-3-(4-{[4-(azetidin-1-ylmethyl)-6-(trifluoromethyl)pyridin-2-yl]oxy}piperidin-1-yl)-1-[4-(7H-pyrrolo[2,3-d]pyrimidin-4-yl)-1H-pyrazol-1-yl]cyclobutyl}acetonitrile]	25 to 100	< 10	–	–
N#CC[C@]1(n2cc(-c3ncnc4[nH]ccc34)cn2)C[C@H](N2CCC(Oc3cc(CN4CC(O)C4)cc(C(F)(F)F)n3)CC2)C1 [Example 157, {trans-3-(4-{[4-[(3-hydroxyazetidin-1-yl)methyl]-6-(trifluoromethyl)pyridin-2-yl]oxy}piperidin-1-yl)-1-[4-(7H-pyrrolo[2,3-d]pyrimidin-4-yl)-1H-pyrazol-1-yl]cyclobutyl}acetonitrile]	25 to 100	< 10	–	–
N#CC[C@]1(n2cc(-c3ncnc4[nH]ccc34)cn2)C[C@H](N2CCC(Oc3cc(CN4CCCC4)cc(C(F)(F)F)n3)CC2)C1 [Example 158, {trans-3-(4-{[4-(pyrrolidin-1-ylmethyl)-6-(trifluoromethyl)pyridin-2-yl]oxy}piperidin-1-yl)-1-[4-(7H-pyrrolo[2,3-d]pyrimidin-4-yl)-1H-pyrazol-1-yl]cyclobutyl}acetonitrile]	25 to 100	< 10	–	–
N#CC[C@]1(n2cc(-c3ncnc4[nH]ccc34)cn2)C[C@H](N2CCC(Oc3cc(CN4CCOCC4)cc(C(F)(F)F)n3)CC2)C1 [Example 159, {trans-3-(4-{[4-(morpholin-4-ylmethyl)-6-(trifluoromethyl)pyridin-2-yl]oxy}piperidin-1-yl)-1-[4-(7H-pyrrolo[2,3-d]pyrimidin-4-yl)-1H-pyrazol-1-yl]cyclobutyl}acetonitrile]	25 to 100	< 10	–	–
N#CC[C@]1(n2cc(-c3ncnc4[nH]ccc34)cn2)C[C@H](N2CCC(Oc3cc(CN4CCC(F)(F)C4)cc(C(F)(F)F)n3)CC2)C1 [Example 160, {trans-3-(4-{[4-[(3,3-difluoropyrrolidin-1-yl)methyl]-6-(trifluoromethyl)pyridin-2-yl]oxy}piperidin-1-yl)-1-[4-(7H-pyrrolo[2,3-d]pyrimidin-4-yl)-1H-pyrazol-1-yl]cyclobutyl}acetonitrile]	> 100	10 to 25	–	–
N#CC[C@]1(n2cc(-c3ncnc4[nH]ccc34)cn2)C[C@H](N2CCC(Oc3cc(CN4CCC[C@H]4CO)cc(C(F)(F)F)n3)CC2)C1 [Example 161, {trans-3-(4-{[4-{[(2S)-2-(hydroxymethyl)pyrrolidin-1-yl]methyl}-6-(trifluoromethyl)pyridin-2-yl]oxy}piperidin-1-yl)-1-[4-(7H-pyrrolo[2,3-d]pyrimidin-4-yl)-1H-pyrazol-1-yl]cyclobutyl}acetonitrile]	25 to 100	< 10	–	–
N#CC[C@]1(n2cc(-c3ncnc4[nH]ccc34)cn2)C[C@H](N2CCC(Oc3cc(CN4CCC[C@@H]4CO)cc(C(F)(F)F)n3)CC2)C1 [Example 162, {trans-3-(4-{[4-{[(2R)-2-(hydroxymethyl)pyrrolidin-1-yl]methyl}-6-(trifluoromethyl)pyridin-2-yl]oxy}piperidin-1-yl)-1-[4-(7H-pyrrolo[2,3-d]pyrimidin-4-yl)-1H-pyrazol-1-yl]cyclobutyl}acetonitrile]	> 100	< 10	–	–
CC(C)(O)c1cc(C(=O)N2CCN([C@H]3C[C@](CC#N)(n4cc(-c5ccnc6[nH]ccc56)cn4)C3)CC2)nc(C(F)(F)F)c1 [Example 163, {trans-3-(4-{[4-(1-hydroxy-1-methylethyl)-6-(trifluoromethyl)pyridin-2-yl]carbonyl}piperazin-1-yl)-1-[4-(1H-pyrrolo[2,3-b]pyridin-4-yl)-1H-pyrazol-1-yl]cyclobutyl}acetonitrile]	25 to 100	< 10	–	–
{cis-3-(4-{[6-(1-hydroxy-1-methylethyl)-2-(trifluoromethyl)pyrimidin-4-yl]carbonyl}piperazin-1-yl)-1-[4-(1H-pyrrolo[2,3-b]pyridin-4-yl)-1H-pyrazol-1-yl]cyclobutyl}acetonitrile [Example 77]	–	–	25 to 100	< 10
